# Measured values published in patent US20130065820A1, “SYNTHETIC MYOSTATIN PEPTIDE ANTAGONISTS” (COVITA LIMITED, priority 2009, published 2013).
# Where “and” joins values, the source holds several entries; their conditions need not be identical. Equal entries are not always repeated. Bridge positions count the residues as written; N and C are the ends. Ends that are not written are not given here.
# Tests used:
# myoblasts = test: Myoblast proliferation / biological activity of synthetic peptides with other cysteine connectivities (results not shown); format: cell-based; conditions: synthetic peptides of stated connectivity or truncation
# Protocol: (§1) Bovine C2C12 myoblasts were grown in Dulbecco's modified eagle medium according to the standard techniques (Thomas et al, 2000). The myoblast proliferation assay was carried out in uncoated 96-well microtitre plates. C2C12 cultures were seeded at 1000 cells/well. Following a 16-hour attachment period, test media containing varying concentrations of either the synthetic 310 peptide in the 2-3 conformation, the synthetic 310 peptide in the 1-4/2-3 conformation or the positive control (recombinant 310 peptide) were added and cells were incubated for a further 48 or 72 hour period. After the incubation period, proliferation was assessed using methylene blue photometric endpoint assay as previously described (Thomas et al, 2000).
# A number of synthetic peptides were prepared having an amino acid sequence corresponding to amino acids at positions 267-310 and 282-310 of SEQ ID NO:1. Of the 267-310 peptides a number of different connectivities were prepared as follows: • 1. 1-3/2-4 • 2. 1-2/3-4 • 3. 1-2 • 4. 1-3 • 5. 1-4 • 6. 1-2, 3-4/1-3, 2-4 • 7. 2-4 • 8. 3-4 • 9. 1-4/2-3 • 10. Linear (no forced connectivity)
# The peptides were synthesized as described above in example 1. Different cysteine residues were protected and deprotected to produce the specified connectivities and would be understood by a skilled worker.
# C2C12 myoblasts [1] = test: Nuclei count per well by DAPI staining of the myoblast proliferation plates; format: cell-based, Bovine
# Protocol: as §1
# To confirm that the increased proliferation observed in example 1 was not simply false positive results, the plates were used to count nuclei.
# Cells in the wells of interest were stained with DAPI (4′-6-diamidino-2-phenylindole) which is a fluorescent dye that stains nuclei blue. DAPI was used at a concentration of […] in PBS and cells stained for 5 mins at room temperature, then washed once with PBS buffer. Images of each well were then captured via a Leica DMI 6000 microscope and an image analysis program (Image-Pro plus) utilised to count the nuclei. For each treatment (recombinant 310 positive control, and synthetic peptides (2-3) and (1-4/2-3) at 10 and 20 µg/ml), 3-6 wells per treatment were analysed.
# C2C12 myoblasts [2] = test: Myoblast proliferation assay (methylene blue photometric endpoint); format: cell-based, Mouse; conditions: for % proliferation above control: control (media + buffer) = 100%; for myoblast proliferation / biological activity (in words): 48 or 72 hours, compared to control (media and buffer only)
# From the text: A synthetic peptide of the invention, or a functional variant or fragment thereof has the biological function of antagonising myostatin activity. To determine whether a synthetic peptide of the invention, or functional variant or fragment thereof, is able to antagonise myostatin activity, such activity can be tested by growing myoblasts in the presence or absence (control) of a candidate synthetic peptide of the invention. […] A suitable cell line could be murine C2Cl2 myoblasts (ATCC NO: CRL-1772), however, it will be appreciated that any suitable myoblast cell line could be used, such as primary ovine, bovine, porcine or human myoblasts.
# as §1, with “The” for “Bovine C2C12 myoblasts were grown in Dulbecco's modified eagle medium according to the standard techniques (Thomas et al, 2000). The”
# myostatin = conditions: recombinant peptide, WO 2008/016314; cited from earlier work
substance,measurement,setting,value
"1-2: Synthetic 267-310 myostatin peptide with 1-2 cysteine connectivity (DFGLDCDEHSTESRCCRYPLTVDFEAFGWDWIIAPKRYKANYCS; disulfide 6-15; not fully specified (bridges); cysteine pairing not given here; UniProt O18836 267-310, looked up, fragment)",biological activity / enhanced myoblast proliferation (in words),myoblasts,not biologically active
"1-3: Synthetic 267-310 myostatin peptide with 1-3 cysteine connectivity (DFGLDCDEHSTESRCCRYPLTVDFEAFGWDWIIAPKRYKANYCS; disulfide 6-16; not fully specified (bridges); cysteine pairing not given here; UniProt O18836 267-310, looked up, fragment)",biological activity / enhanced myoblast proliferation (in words),myoblasts,not biologically active
"1-4: Synthetic 267-310 myostatin peptide with 1-4 cysteine connectivity (DFGLDCDEHSTESRCCRYPLTVDFEAFGWDWIIAPKRYKANYCS; disulfide 6-43; not fully specified (bridges); cysteine pairing not given here; UniProt O18836 267-310, looked up, fragment)",biological activity / enhanced myoblast proliferation (in words),myoblasts,not biologically active
"2-4: Synthetic 267-310 myostatin peptide with 2-4 cysteine connectivity (DFGLDCDEHSTESRCCRYPLTVDFEAFGWDWIIAPKRYKANYCS; disulfide 15-43; not fully specified (bridges); cysteine pairing not given here; UniProt O18836 267-310, looked up, fragment)",biological activity / enhanced myoblast proliferation (in words),myoblasts,not biologically active
"3-4: Synthetic 267-310 myostatin peptide with 3-4 cysteine connectivity (DFGLDCDEHSTESRCCRYPLTVDFEAFGWDWIIAPKRYKANYCS; disulfide 16-43; not fully specified (bridges); cysteine pairing not given here; UniProt O18836 267-310, looked up, fragment)",biological activity / enhanced myoblast proliferation (in words),myoblasts,not biologically active
"310 positive control: Recombinant peptide of amino acids 267-310 of bovine myostatin with N terminal and C terminal tags, positive control (DFGLDCDEHSTESRCCRYPLTVDFEAFGWDWIIAPKRYKANYCS; cysteine pairing not given here; also: N- and C-terminal tags; UniProt O18836 267-310, looked up, fragment) [reference compound]",Number of nuclei per well,"C2C12 myoblasts [1]; 10 μg, 48 h",847.1 and 816.7
same,Number of nuclei per well,"C2C12 myoblasts [1]; 10 μg, 72 h",2429.3 and 2229.2
same,% proliferation above control,"C2C12 myoblasts [2]; 10 μg, 48 h",113.58% and 111.76%
same,% proliferation above control,"C2C12 myoblasts [2]; 10 μg, 72 h",122.97% and 119.64%
same,myoblast proliferation / biological activity (in words),C2C12 myoblasts [2],significantly enhanced myoblast proliferation
"310 synthetic peptide that was N-terminally truncated at amino acid position 282: Synthetic peptide of amino acids 282-310 of SEQ ID NO:1, only cysteines 3 and 4 (CRYPLTVDFEAFGWDWIIAPKRYKANYCS; only cysteines 3 and 4; listed as Homo sapiens)",biological activity / enhanced myoblast proliferation (in words),myoblasts,not active
"Synthetic 310 (2-3 connectivity): Synthetic peptide of amino acids 267-310 of bovine myostatin with forced disulfide between cysteines 2 and 3 (281, 282) (DFGLDCDEHSTESRCCRYPLTVDFEAFGWDWIIAPKRYKANYCS; disulfide 15-16; not fully specified (bridges); cysteine pairing not given here; UniProt O18836 267-310, looked up, fragment)",Number of nuclei per well,"C2C12 myoblasts [1]; 10 μg, 48 h",810.5
same,Number of nuclei per well,"C2C12 myoblasts [1]; 10 μg, 72 h",1906.1
same,Number of nuclei per well,"C2C12 myoblasts [1]; 20.0 μg, 48 h",808.9
same,Number of nuclei per well,"C2C12 myoblasts [1]; 20.0 μg, 72 h",1903.6
same,increase in cell numbers (in words),C2C12 myoblasts [1]; 48 h,significant increases in cell numbers
same,increase in cell numbers (in words),C2C12 myoblasts [1]; 72 h,significant increases in cell numbers
same,% proliferation above control,"C2C12 myoblasts [2]; 0.1 μg, 48 h",101.66%
same,% proliferation above control,"C2C12 myoblasts [2]; 0.1 μg, 72 h",101.06%
same,% proliferation above control,"C2C12 myoblasts [2]; 1.0 μg, 48 h",97.70%
same,% proliferation above control,"C2C12 myoblasts [2]; 1.0 μg, 72 h",102.00%
same,% proliferation above control,"C2C12 myoblasts [2]; 10 μg, 48 h",104.18%
same,% proliferation above control,"C2C12 myoblasts [2]; 10 μg, 72 h",103.83%
same,% proliferation above control,"C2C12 myoblasts [2]; 20.0 μg, 48 h",105.00%
same,% proliferation above control,"C2C12 myoblasts [2]; 20.0 μg, 72 h",105.07%
same,myoblast proliferation / biological activity (in words),C2C12 myoblasts [2],biologically active
"Synthetic 310 (2-3/1-4 connectivity): Synthetic peptide of amino acids 267-310 of bovine myostatin (SEQ ID NO:4) with forced 2-3/1-4 disulfide connectivity (DFGLDCDEHSTESRCCRYPLTVDFEAFGWDWIIAPKRYKANYCS; disulfide 15-16, 6-43)",biological activity / enhanced myoblast proliferation (in words),myoblasts,biologically active
same,Number of nuclei per well,"C2C12 myoblasts [1]; 10 μg, 48 h",810.2
same,Number of nuclei per well,"C2C12 myoblasts [1]; 10 μg, 72 h",2328.2
same,Number of nuclei per well,"C2C12 myoblasts [1]; 20.0 μg, 48 h",739.3
same,Number of nuclei per well,"C2C12 myoblasts [1]; 20.0 μg, 72 h",2172.0
same,increase in cell numbers (in words),C2C12 myoblasts [1]; 72 h,significant increases in cell numbers
same,% proliferation above control,"C2C12 myoblasts [2]; 0.1 μg, 48 h",100.17%
same,% proliferation above control,"C2C12 myoblasts [2]; 0.1 μg, 72 h",100.54%
same,% proliferation above control,"C2C12 myoblasts [2]; 1.0 μg, 48 h",100.07%
same,% proliferation above control,"C2C12 myoblasts [2]; 1.0 μg, 72 h",102.60%
same,% proliferation above control,"C2C12 myoblasts [2]; 10 μg, 48 h",108.58%
same,% proliferation above control,"C2C12 myoblasts [2]; 10 μg, 72 h",107.51%
same,% proliferation above control,"C2C12 myoblasts [2]; 20.0 μg, 48 h",106.87%
same,% proliferation above control,"C2C12 myoblasts [2]; 20.0 μg, 72 h",110.47%
same,myoblast proliferation / biological activity (in words),C2C12 myoblasts [2],slightly more biological activity
"linear 310 synthetic peptide: Synthetic 267-310 myostatin peptide, linear, no forced connectivity (DFGLDCDEHSTESRCCRYPLTVDFEAFGWDWIIAPKRYKANYCS; Growth/differentiation factor 8 linear; UniProt O18836 267-310, looked up, fragment)",biological activity / enhanced myoblast proliferation (in words),myoblasts,showed enhanced myoblast proliferation
"mature recombinant myostatin peptide C-terminally truncated at position 281: Recombinant mature myostatin peptide truncated at 281, two cysteines (1-2 connectivity), from WO 2008/016314 (DFGLDCDEHSTESRC; disulfide 6-15; UniProt O18836 267-281, looked up, fragment)",biological activity (in words),myostatin,biologically active
"synthetic peptide having a truncation position at 281: Synthetic mature myostatin peptide C-terminally truncated at position 281 (DFGLDCDEHSTESRC; Growth/differentiation factor 8; UniProt O18836 267-281, looked up, fragment)",biological activity / enhanced myoblast proliferation (in words),myoblasts,not biologically active
